Reference: patent US20090263744A1, “ETHYLENICALLY UNSATURATED COMPOUND, LIGHT SENSITIVE COMPOSITION, LIGHT SENSITIVE PLANOGRAPHIC PRINTING PLATE MATERIAL AND PRINTING PROCESS EMPLOYING THE SAME” (priority 2005, published 2009)

How the values were obtained:
[1] = Solubility of polymerizable monomer in 25° C. pure water (visual, no precipitations or oily separated components); assay type: physicochemical
Protocol: (§1) Herein, “dissolve” implies that no precipitations or oily separated components are visually observed under the following experimental conditions. Solubility in a 25° C. KOH aqueous solution having a pH of 12.5 or 25° C. pure water is represented by a value obtained by the following measuring method.
(§2) An ethylenically unsaturated compound is added to 20 ml of the solution or pure water described above at 25° C. in a 100 ml conical flask, stirred with a stirrer having a 1 cm long stirrer piece at a rate of 300 rpm for one hour, then allowed to stand for five minutes.
(§3) Solubility of polymerizable monomer to water or an alkali solution was measured according to the procedure described above.

[2] = Solubility of polymerizable monomer in alkali solution (25° C. KOH aqueous solution having a pH of 12.5); assay type: physicochemical; details: Table 3, pH 12.5
Protocol: as §1, §2, §3

## C=CC(=O)OCC(CO)(COC(=O)C=C)COC(=O)C=C [PETA, Pentaerythritol triacrylate]
[1]; Table 2, water, 25° C.
  Solubility of polymerizable monomer weight % (water): 0.1 weight %
[1]; Table 3, 25° C. pure water
  Solubility of polymerizable monomer, Pure water: 0.1 % by weight
[2]
  Solubility of polymerizable monomer, Alkali solution: 0.1 % by weight
